Experimental data published in patent US11214803B2, “Modulators of YAP1 expression” (Ionis Pharmaceuticals, Inc., priority 2019, dated 2022).
Strand notation (5' to 3'): a small letter for the sugar, then the base; units joined by * are phosphorothioate-linked, units joined directly phosphodiester-linked; [ ] holds rarer units or linkages, { } end groups; capitals alone tell only the bases. e = 2'-O-(2-methoxyethyl) (MOE); k = constrained ethyl (cEt); [5mC] = 5-methylcytosine; d = 2'-deoxy (DNA); m = 2'-O-methyl

Tested on: Yap1 mRNA
Experiment: Antisense inhibition of human Yap1 in SNU-449 cells by modified oligonucleotides, single dose (Example 5, RTS36584)
Format: cell-based
Conditions: Table 39; SNU-449 cells, 10,000 cells per well, free uptake, 2,000 nM oligonucleotide, approx. 48 hours; RTS36584; normalized to RIBOGREEN; Yap1 mRNA relative to untreated control
Procedure, shortened: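 SNU-449 cells were given 2,000 nM oligonucleotide by free uptake for about 48 h. Yap1 mRNA was then measured by RT-qPCR with primer probe set RTS36584, normalized to total RNA by RIBOGREEN and expressed as percent of untreated control.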

Compared with “1198448 (kA*dG*dT*dA*dA*dG*dG*dT*dT*dT*d[5mC]*k[5mC]*e[5mC]*kA*eG*kA) [Compound 1198448]”, “1198397 (k[5mC]*dA*d[5mC]*dT*dT*dT*dT*dA*d[5mC]*dA*dT*kT*eA*kG*eG*kA; antisense) [Compound 1198397]” is lower in “YAP1 (% UTC)” value: 36 % UTC for the first, 17 % UTC for the second.

Same assay, conditions: Table 40 (separate experiment); SNU-449 cells, 10,000 cells per well, free uptake, 2,000 nM oligonucleotide, approx. 48 hours; RTS36584; normalized to RIBOGREEN; Yap1 mRNA relative to untreated control

Going from “1198445 (k[5mC]*dT*dT*dT*dA*dA*dA*dG*dT*dG*dT*kA*eT*kG*eT*k[5mC]; antisense) [Compound 1198445]” to “1198720 (kT*eG*kG*dA*dA*dA*dT*dT*dG*dT*d[5mC]*dT*e[5mC]*eA*kT*kG; antisense) [Compound 1198720]”, the “YAP1 (% UTC)” value falls from 61 % UTC to 21 % UTC.

Compared with “1198755 (kT*eG*k[5mC]*dT*dT*dT*dG*dG*dA*dA*dG*dA*eT*e[5mC]*kT*kG) [Compound 1198755]”, “1198725 (kT*eA*kG*dA*dG*dT*dA*dT*dG*dT*dG*dG*e[5mC]*eA*kA*kT; antisense) [Compound 1198725]” is lower in “YAP1 (% UTC)” value: 32 % UTC for the first, 23 % UTC for the second.

“1198744 (kA*e[5mC]*kT*dT*dT*dT*dA*d[5mC]*dA*dT*dT*dA*eG*eG*kA*kA; antisense) [Compound 1198744]” was tested, and the “YAP1 (% UTC)” value was 66 % UTC.

Same assay, conditions: Table 41; SNU-449 cells, 10,000 cells per well, free uptake, 2,000 nM modified oligonucleotide, approximately 48 hours; RTS36584; normalized to RIBOGREEN; Yap1 mRNA relative to untreated control cells

Going from “1198690 (antisense kT*kA*dA*dT*dA*dT*dT*dG*d[5mC]*dA*dA*dT*k[5mC]*eT*kG*eT) [Compound 1198690]” to “1198791 (antisense kT*eT*kA*dA*dA*dG*dT*dG*dT*dA*dT*dG*eT*e[5mC]*kA*kG) [Compound 1198791]”, the “YAP1 (% UTC)” value falls from 64 % UTC to 39 % UTC.

Same assay, conditions: Table 42 (separate experiment); SNU-449 cells, 10,000 cells per well, free uptake, 2,000 nM modified oligonucleotide, approximately 48 hours; RTS36584; normalized to RIBOGREEN; Yap1 mRNA relative to untreated control cells

First: 1198705 (kT*kA*dA*dG*dG*dT*dT*dT*d[5mC]*d[5mC]*d[5mC]*dA*kG*eA*kT*eT; antisense) [Compound 1198705]
Second: 1198229 (kT*kT*dA*dA*dG*d[5mC]*dA*d[5mC]*dT*dT*dT*eT*eA*e[5mC]*kA*kT) [Compound 1198229]
The “YAP1 (% UTC)” value of the first is lower: 70 % UTC for the first, 80 % UTC for the second.

Same assay, conditions: Table 43 experiment; SNU-449 cells, 10,000 cells per well, free uptake, 2,000 nM, approximately 48 hours; RTS36584; Yap1 mRNA normalized to RIBOGREEN, relative to untreated control cells

First: 1198468 (antisense kT*kT*dA*dG*dA*dG*dT*dA*dT*dG*dT*eG*kG*e[5mC]*kA*eA) [Compound 1198468]
Second: 1198483 (antisense k[5mC]*kA*d[5mC]*dT*dT*dT*dT*dA*d[5mC]*dA*dT*eT*kA*eG*kG*eA) [Compound 1198483]
The “YAP1 (% UTC)” value of the first is lower: 22 % UTC for the first, 31 % UTC for the second.

Compared with “1198464 (antisense kA*kT*dA*dT*dG*dG*dA*dA*dA*dT*dT*eG*kT*e[5mC]*kT*e[5mC]) [Compound 1198464]”, “1198265 (kT*kT*dT*dA*dT*dG*dT*dA*dA*dT*dA*eT*eT*eG*k[5mC]*kA; antisense) [Compound 1198265]” is higher in “YAP1 (% UTC)” value: 41 % UTC for the first, 111 % UTC for the second.

Same assay, conditions: Table 44 experiment; SNU-449 cells, 10,000 cells per well, free uptake, 2,000 nM, approximately 48 hours; RTS36584; Yap1 mRNA normalized to RIBOGREEN, relative to untreated control cells

First: 1198528 (kT*kA*dA*dA*dG*dT*dG*dT*dA*dT*dG*eT*k[5mC]*eA*kG*eA; antisense) [Compound 1198528]
Second: 1198527 (kA*kA*dA*dG*dT*dG*dT*dA*dT*dG*dT*e[5mC]*kA*eG*kA*eA; antisense) [Compound 1198527]
The “YAP1 (% UTC)” value of the first is higher: 14 % UTC for the first, 5 % UTC for the second.

Going from “1198520 (kT*kG*dT*dA*dA*dT*dA*dT*dT*dG*d[5mC]*eA*kA*eT*k[5mC]*eT; antisense) [Compound 1198520]” to “1198515 (kA*kT*dT*dG*d[5mC]*dA*dA*dT*d[5mC]*dT*dG*eT*k[5mC]*eT*kG*eA; antisense) [Compound 1198515]”, the “YAP1 (% UTC)” value falls from 51 % UTC to 44 % UTC.

Same assay, conditions: Table 45; Yap1 mRNA as percent of untreated control, SNU-449 cells, single dose

Compared with “1198894 (kG*kA*dA*dA*dT*dT*dG*dT*d[5mC]*dT*d[5mC]*kA*dT*kG*d[5mC]*k[5mC]; antisense) [Compound 1198894]”, “1198970 (kT*kA*dA*dG*dT*dA*dA*dG*dG*dT*dT*kT*d[5mC]*k[5mC]*d[5mC]*kA; antisense) [Compound 1198970]” is lower in “YAP1 (% UTC)” value: 57 % UTC for the first, 29 % UTC for the second.

Same assay, conditions: Table 46; Yap1 mRNA as percent of untreated control, SNU-449 cells, single dose

For “1198843 (kA*kG*dT*dG*d[5mC]*dT*dT*dT*dG*dG*dA*kA*eG*kA*eT*k[5mC]; antisense) [Compound 1198843]”, the “YAP1 (% UT)” value was 45 % UT.

Same assay, conditions: Table 48; Yap1 mRNA level relative to untreated control; modified oligonucleotides targeting SEQ ID NO.: 1 and 2

Compared with “1198291 (kA*kT*kG*dG*dA*dA*dA*dT*dT*dG*dT*d[5mC]*kT*e[5mC]*kA*eT; antisense) [Compound 1198291]”, “1197203 (antisense kA*kA*k[5mC]*dT*d[5mC]*dT*dT*dA*dT*dA*dT*dG*dG*kT*kT*kT) [Compound 1197203]” is higher in “YAP1 (% UT)” value: 58 % UT for the first, 68 % UT for the second.

In the case of “1198343 (kA*kT*kT*dG*d[5mC]*dA*dA*dT*d[5mC]*dT*dG*dT*k[5mC]*eT*kG*eA; antisense) [Compound 1198343]”, the “YAP1 (% UT)” value is reported as 39 % UT.

Same assay, conditions: Table 49; Yap1 mRNA level relative to untreated control; modified oligonucleotides targeting SEQ ID NO.: 1 and 2

Going from “1198583 (antisense kA*kG*kG*dA*dT*dG*d[5mC]*dA*dT*dG*dG*dT*kT*kT*kT*eT) [Compound 1198583]” to “1198302 (kT*kA*kT*dA*dA*d[5mC]*dT*dG*dG*dG*d[5mC]*dA*kA*eA*kT*eT; antisense) [Compound 1198302]”, the “YAP1 (% UT)” value rises from 27 % UT to 67 % UT.

First: 1198366 (kA*k[5mC]*kT*dA*dA*dG*dT*dA*dA*dG*dG*dT*kT*eT*k[5mC]*e[5mC]; antisense) [Compound 1198366]
Second: 1198335 (kT*kT*kA*dT*dA*dT*dG*dG*dT*dT*dT*dT*kG*eT*kG*eT; antisense) [Compound 1198335]
The “YAP1 (% UT)” value of the first is higher: 45 % UT for the first, 26 % UT for the second.

Same assay, conditions: Table 50; Yap1 mRNA remaining as percent of untreated control (UT), SNU-449 cells, single dose

Going from “1198585 (antisense kT*kT*kT*dA*dG*dG*dA*dT*dG*d[5mC]*dA*dT*kG*kG*kT*eT) [Compound 1198585]” to “1198596 (antisense k[5mC]*kT*k[5mC]*dT*dT*dA*dT*dA*dT*dG*dG*dT*kT*kT*kT*eG) [Compound 1198596]”, the “YAP1 (% UT)” value falls from 22 % UT to 16 % UT.

First: 1198595 (antisense kT*k[5mC]*kT*dT*dA*dT*dA*dT*dG*dG*dT*dT*kT*kT*kG*eT) [Compound 1198595]
Second: 1197288 (kT*k[5mC]*kT*dA*mU*dA*dT*dT*dA*dG*dA*dG*dT*kA*kT*kG; antisense) [Compound 1197288]
The “YAP1 (% UT)” value of the first is lower: 27 % UT for the first, 94 % UT for the second.

Going from “1198618 (antisense kA*kA*k[5mC]*dT*dT*dT*dA*dA*dA*dG*dT*dG*kT*kA*kT*eG) [Compound 1198618]” to “1198627 (kT*kT*kA*dG*dA*d[5mC]*dT*dA*dA*dG*dT*dA*kA*kG*kG*eT; antisense) [Compound 1198627]”, the “YAP1 (% UT)” value falls from 74 % UT to 39 % UT.

In the case of “1198600 (antisense kG*kA*k[5mC]*dA*dA*d[5mC]*dT*d[5mC]*dT*dT*dA*dT*kA*kT*kG*eG) [Compound 1198600]”, the “YAP1 (% UT)” value is reported as 72 % UT.

Same assay, conditions: Table 51; Yap1 mRNA remaining as percent of untreated control (UT), SNU-449 cells, single dose

Going from “1200800 (T_{ks}A_{ks}T_{ks}A_{ds}T_{ds}U_{ys}A_{ds}G_{ds}A_{ds}G_{ds}T_{ds}A_{ds}T_{ds}G_{ks}T_{ks}G_{k}; antisense; as printed in the source, key not given here) [Compound 1200800]” to “1197258 (antisense kA*kT*kT*d[5mC]*mA*dG*dA*dT*dT*dT*dA*dG*dG*kA*kT*kG) [Compound 1197258]”, the “YAP1 (% UT)” value falls from 61 % UT to 57 % UT.

Going from “1197273 (kT*kA*kA*dG*mG*dT*dT*dT*d[5mC]*d[5mC]*d[5mC]*dA*dG*kA*kT*kT) [Compound 1197273]” to “1197307 (kA*kT*kA*dT*mU*dG*d[5mC]*dA*dA*dT*d[5mC]*dT*dG*kT*k[5mC]*kT; antisense) [Compound 1197307]”, the “YAP1 (% UT)” value rises from 68 % UT to 88 % UT.

Same assay, conditions: Table 52; Yap1 mRNA, modified oligonucleotides targeting SEQ ID NO: 1 and 2

Compared with “1200810 (kA*kA*k[5mC]*dA*d[5mC]*mU*dG*dA*dG*dG*dT*dA*dT*kA*kA*k[5mC]; antisense) [Compound 1200810]”, “1200844 (kA*kA*k[5mC]*dT*d[5mC]*mU*dT*dA*dT*dA*dT*dG*dG*kT*kT*kT; antisense) [Compound 1200844]” is higher in “YAP1 (% UT)” value: 94 % UT for the first, 132 % UT for the second.

Compared with “1200858 (kA*kA*kG*dT*dG*mU*dA*dT*dG*dT*d[5mC]*dA*dG*kA*kA*kG; antisense) [Compound 1200858]”, “1200827 (kA*kG*kT*dG*d[5mC]*mU*dT*dT*dG*dG*dA*dA*dG*kA*kT*k[5mC]) [Compound 1200827]” is higher in “YAP1 (% UT)” value: 10 % UT for the first, 67 % UT for the second.

In the case of “1200850 (kT*kA*kA*dT*dA*mU*dT*dG*d[5mC]*dA*dA*dT*d[5mC]*kT*kG*kT; antisense) [Compound 1200850]”, the “YAP1 (% UT)” value is reported as 83 % UT.
